B1: PDGF-BB: recombinant human platelet derived growth factor-BB, pro-fibrotic cytokine (BioVision) (protein, UniProt P01127 82-190, looked up)
Platelet-derived growth …: SLGSLTIAEPAMIAECKTRTEVFEISRRLIDRTNANFLVWPPCVEVQRCSGCCNNRNVQCRPTQVQLRPVQVRKIEIVRKKPIFKKATVTLEDHLACKCETVAAARPVT

Tests used:
endogenous rat GFAP mRNA [1] = assay: real-time RT-PCR for endogenous rat GFAP mRNA in T6/lacZ/C1 cells; format: cell-based
Procedure: (§1) Cells were seeded into 12-well plates in full DMEM and 500 μg/ml Zeocin. Twelve hours prior to the cytokine treatment, medium was changed so that the cells were allowed to grow in low serum (0.5% FBS) DMEM. The cells at a confluence of 70-80% were incubated with various concentrations (0, 0.1, 1 and 10 ng/ml) of recombinant human TGF-β1, PDGF-BB (BioVision, CA, USA) and 0, 0.1, 1 and 10 μg/ml lipopolysaccharide (LPS E. coli, Sigma) respectively for 0, 2, 8, 16, 24, 48 and 72 hours before they were harvested for β-galactosidase activity assay and real-time RT-PCR GFAP assay.
Total RNA was reverse transcribed to cDNA using Taqman's reverse transcription reagent (Cat. #N8O8-0234A total of 400 ng of RNA in 7.7 μl nuclease-free water was added to 2 μl 10× reverse transcriptase buffer, 4.4 μl 25 mM magnesium chloride, 4 μl deoxyNTP mixtures, 1 μl random hexamers, 0.4 μl RNase inhibitor and 0.5 μl reverse transcriptase (50 U/μl) in a final reaction volume of 20 μl. The reaction was performed for 10 min at 25° C. (annealing), 30 min at 48° C. (cDNA synthesis) and 5 min at 95° C. (enzyme denaturation).
Real-time quantitative PCR was carried out with an ABI 7500 Real Time PCR System (Applied Biosystems, CA, USA). One microliter of sample cDNA was used in each PCR reaction, with the housekeeping β-actin gene as a reference for normalization. The primers and probes for rat β-actin and GFAP were purchased from Taqman's assay-on-demand database. […]
(§2) Relative quantitation of the target mRNA was calculated using the comparative threshold cycle (CT) methods as described in the User Bulletin #2 (ABI Prism 7700 Sequence Detection System). CT indicates the fractional cycle number at which the amount of amplified target reaches a fixed threshold within the linear phase of gene amplification. ΔCT, which reflects the difference between CT target and CT β-actin, is inversely correlated to the abundance of mRNA transcripts in the samples. ΔCT for each sample was normalized against control experiment or calibrator and expressed as ΔΔCT. Relative quantitation is given by 2^−ΔΔCT to express the up-regulation or down regulation of the target gene under the treatments compared to the control. Six independent experiments were performed for each data point and three ACT were measured for each experiment.
It was known that GFAP, along with desmin, SMAA, and vimentin, was expressed in the clonal T6 cells (Vogel et al. (2000), J Lipid Res. 41(6):882). […] In order to investigate how the endogenous GFAP expression is regulated by TGF-β1 in the T6/lacZ/C1 cells during different time course, we quantified rat GFAP mRNA level using a real-time RT-PCR method. […] Total RNA was isolated from different cells and quantified as described in Materials and Methods, and the results were depicted in FIG. 11.

[2] = tested on: 2.2 kb hGFAP-lacZ transgene in T6/lacZ/C1 cells; assay: quantitative solution assay of β-galactosidase activity in T6/lacZ/C1 cells; format: cell-based, rat
Procedure: To quantify the β-galactosidase activity in cell extracts reported in FIGS. 4 to 10, an enzyme assay kit (E2000, Promega, Wis., USA) was used to measure the specific activity of P-galactosidase, according to the manufacturer's instructions in a 96-well format. Briefly, the cells were washed twice with 1×PBS buffer (pH7.4), lysed for 15 minutes at room temperature with the reporter lysis buffer, and harvested using a cell scraper. The total cell extracts were appropriately diluted (5-10 fold), and assayed for the enzyme activity. The specific β-galactosidase activity was expressed in milliunit per milliliter (mU/ml) using a standard curve established from the β-galactosidase standard (provided with the kit). The protein concentration was measured with a BCA protein assay kit (Pierce, Ill., USA), and used to further convert the specific β-galactosidase activity from mU/ml to mU/μg total cellular protein. Six independent experiments were performed for each time and concentration data point.
as §1
To quantify specific transgene response to TGF-β1, we first set up an experiment to assess possible effects that serum concentration and culture duration may have on the transgene expression. T6/lacZ/C1 cells were initially grown in DMEM with high serum (10% FBS), and then some of the cells were starved with a DMEM with low serum (0.5% FBS) for 12 hours prior to the addition of TGF-β1 (1 ng/ml). After incubation for various times (0, 2, 8, 24, 48 and 72 hours), cells were harvested for β-galactosidase activity assay. […] After 72 hours, the level slipped to 58% of the value at 0 hour (P<0.001). The assay results were depicted in FIG. 8.
To further dissect the TGF-β1 contribution to the transgene induction, we treated T6/lacZ/C1 cells grown in low serum with various concentrations of TGF-β1 (0, 0.1, 1, 10 ng/ml) and assayed the enzymatic activity for three time points (24, 48 and 72 hours). The assay results were plotted in FIG. 9. […] When the non-treatment groups were normalized to 1 and the magnitude of induction were plotted for the 10 ng/ml treatment groups at all three time points (FIG. 10), a trend of increasing induction with time was apparent.

[3] = tested on: GFAP-lacZ expression in T6/lacZ/C1 cells; assay: X-gal staining of T6/lacZ/C1 cells treated with TGF-β1, PDGF-BB and LPS; format: cell-based, rat; conditions: 0.1 to 10 ng/ml, full DMEM, 72 hours, X-gal one hour
Procedure: A lacZ reporter assay kit for cell staining (InvivoGen, CA, USA) was used to detect the reporter gene activity in both stable and transient transfectants. Development of the blue end product was monitored at different time intervals (15, 30, 60, 90, and 120 minutes). The staining results were documented with a digital camera (DP12) attached to an Olympus inverted bright field microscope (IX51).
To determine possible induction of GFAP-lacZ expression by molecules with pro-fibrotic and proinflammatory properties in activated HSC the T6/lacZ/C1 cells were treated with TGF-β1, PDGF-BB and LPS respectively at various concentrations (0, 0.1, 1 and 10 ng/ml) in the full DMEM medium for 72 hours. The cells were then stained with X-gal for one hour and photographed. […] In order to obtain truly quantitative data, a solution assay was employed to measure possible up-regulation of β-galactosidase activity by TGF-β1 in experiments below.

GFAP-lacZ transgene = assay: chemiluminescent β-galactosidase activity assay of GFAP-lacZ transgene expression in T6/GFAP-lacZ cells; format: cell-based, rat; conditions: 10 ng/ml PDGF-BB, 48 hours, low serum DMEM
Procedure: (§3) Cells were initially seeded in 12-well plates in DMEM supplemented with 10% FBS and weaned to a low serum DMEM (0.5% FBS) at a confluence of 70-80% for 12 hours of adaptation. Cells were then incubated with different concentrations of compounds for various amounts of time before being assayed for β-galactosidase activity and GFAP mRNA. For compound attenuation studies, cells were treated with a pro-fibrotic cytokine (TGF-β1 or PDGF-BB) either sequentially or concurrently with a compound (EGCG or genistein). In the sequential scheme, cells were first treated with a cytokine for 1-3 days, then the cytokine-containing culture medium was replaced with a fresh medium containing a particular compound only for various times. Details of the cytokine/compound treatments can be found in the individual figure legends.
A lacZ reporter assay kit for cell staining (InvivoGen, CA, USA) was used to detect the reporter gene activity in T6/GFAP-lacZ cells treated with EGCG or genistein. The staining results were documented with a digital camera (DP12) attached to an Olympus inverted bright field microscope (IX51) after development for 60 min. For quantification, the β-galactosidase activity in cell extracts was measured using a chemiluminescent assay kit (Roche, Mannheim, Germany) in a 96-well plate format, according to the manufacturer's instructions. Briefly, cells were washed twice with ice-cold 1×PBS (pH 7.4), lysed for 30 minutes at room temperature with the lysis buffer, and supernatant was collected for assays. Protein concentration was determined with a BCA protein assay kit (Pierce, Ill., USA). Specific β-galactosidase activity was obtained by normalizing against total cellular protein content.

endogenous rat GFAP mRNA [4] = assay: real-time RT-PCR for endogenous rat GFAP mRNA in T6/GFAP-lacZ cells; format: cell-based; conditions: 10 ng/ml PDGF-BB, 24 hours, low serum DMEM
Procedure: as §3
Total RNA was reverse-transcribed to cDNA using Taqman's reverse transcription reagent (Applied Biosystems, CA, USA). A total of 200 ng of RNA in 7.7 μl of nuclease-free water was added to 2 μl 10× reverse transcriptase buffer, 4.4 μl 25 mM magnesium chloride, 4 μl deoxyNTP mixtures, 1 μl random hexamers, 0.4 μl RNase inhibitor and 0.5 μl reverse transcriptase (50 U/μl) in a final reaction volume of 20 μl. The reaction was performed for 10 min at 25° C. (annealing), 30 min at 48° C. (cDNA synthesis) and 5 min at 95° C. (enzyme denaturation).
Real-time quantitative PCR was carried out with an ABI 7500 Fast Real-time PCR System (Applied Biosystems, CA, USA). Two micro liters of sample cDNA were used in each PCR reaction, with β-actin gene as a reference for normalization. The primers and probes for rat β-actin and GFAP were ordered from Taqman's assay-on-demand database. The PCR reaction was performed under a default profile consisting of 95° C. for 20 seconds (enzyme denaturation) and 40 cycles of amplification (denaturation 3 seconds, annealing and extension 30 seconds). Some of the real-time RT-PCR reactions were separated on an agarose gel for visual confirmation of discrete products (data not shown).
as §2, with “samples. ACT” for “samples. ΔCT”, “or down-regulation” for “or down regulation”, “control.” for “control. Six independent experiments were performed for each data point and three ACT were measured for each experiment.”

[5] = 10 ng/ml TGF-β1, low serum, 72 hours

Molecule	GFAP mRNA level relative to basal level at 0 hour (normalized to 1) (endogenous rat GFAP mRNA [1]; 1 ng/ml TGF-β1, 16 hour)	GFAP mRNA level relative to basal level at 0 hour (normalized to 1) (endogenous rat GFAP mRNA [1]; 1 ng/ml TGF-β1, 48 hours)	GFAP mRNA level relative to basal level at 0 hour (normalized to 1) (endogenous rat GFAP mRNA [1]; 1 ng/ml TGF-β1, 72 hours)	GFAP mRNA level relative to basal level (endogenous rat GFAP mRNA [1]; 1 ng/ml TGF-β1, within the first 24 hours (except 16 hour))	specific β-galactosidase activity ([2]; 1 ng/ml TGF-β1, 0.5% FBS, 24 hour (peak))	transgene expression level relative to 0 hour ([2]; 1 ng/ml TGF-β1, 0.5% FBS, 48 hours)	transgene expression level, % of the value at 0 hour ([2]; 1 ng/ml TGF-β1, 0.5% FBS, 72 hours)	induction of β-galactosidase activity ([2]; 10 ng/ml TGF-β1, low serum, 24, 48 and 72 hours)	absolute enzymatic (β-galactosidase) activity [2, 5]	magnitude of induction of β-galactosidase activity vs non-treatment group (normalized to 1) [2, 5]	X-gal blue staining compared to the untreated [3]	induction of transgenic GFAP-lacZ expression (GFAP-lacZ transgene)	induction of endogenous GFAP (endogenous rat GFAP mRNA [4])
TGF-β1: recombinant human transforming growth factor-β1, pro-fibrotic cytokine (BioVision)	0.5 fold	7 fold	8.5 fold	remained steady	0.52 mU/μg	dropped to the same level as at 0 hour	58%	Significant induction	0.43 mU/μg	nearly two fold	more intense blue staining	–	–
B1	–	–	–	–	–	–	–	–	–	–	less pronounced response	24%	53%
